# Experimental data from ChEMBL document CHEMBL4828771, “Discovery and Development of a Potent, Selective, and Orally Bioavailable CHK1 Inhibitor Candidate: 5-((4-((3-Amino-3-methylbutyl)amino)-5-(trifluoromethyl)pyrimidin-2-yl)amino)picolinonitrile” (J Med Chem, 2021).
# Activity calls are given as the source filed them. No cut-off for these calls is given here.
# How the values were obtained:
# Mus musculus [1] = test: Induction of S345 phosphorylation in tumor of mouse xenografted with human HT-29 cells at 100 mg/kg, iv dosed once a week for 22 days by Western blot analysis; format: functional, organism-based; conditions: time 22.0 day
# HT-29 [2] = test: Induction of gamma-H2A.X in human HT-29 cells at 40 nM incubated for 24 hrs by Western blot analysis; format: functional, cell-based
# HT-29 [3] = test: Antitumor activity against human HT-29 cells xenografted in mouse assessed as reduction in tumor growth by measuring T/C ratio at 100 mg/kg, iv dosed once a week for 22 days measured twice every week; format: functional; conditions: time 22 day
# [4] = target: T1, Serine/threonine-protein kinase Chk1 (Homo sapiens) (UniProt O14757); test: Inhibition of CHK1 in human HT-29 cells assessed as increase in phosphorylation at S345 residue at 40 nM incubated for 24 hrs by Western blot analysis; format: cell-based
# T1 sequence (whole entry): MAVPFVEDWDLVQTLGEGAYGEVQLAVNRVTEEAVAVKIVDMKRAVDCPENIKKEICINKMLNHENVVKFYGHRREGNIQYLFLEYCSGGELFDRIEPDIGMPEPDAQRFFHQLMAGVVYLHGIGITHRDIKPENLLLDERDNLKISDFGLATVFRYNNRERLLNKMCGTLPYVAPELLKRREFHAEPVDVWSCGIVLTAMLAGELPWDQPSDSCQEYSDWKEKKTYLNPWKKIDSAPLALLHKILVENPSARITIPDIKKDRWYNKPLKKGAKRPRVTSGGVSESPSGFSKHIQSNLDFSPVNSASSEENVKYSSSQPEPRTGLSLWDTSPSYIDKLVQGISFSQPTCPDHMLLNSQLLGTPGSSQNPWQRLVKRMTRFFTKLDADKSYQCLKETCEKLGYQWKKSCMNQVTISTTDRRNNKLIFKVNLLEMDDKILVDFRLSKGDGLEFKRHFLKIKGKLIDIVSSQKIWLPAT
# Mus musculus [5] = test: Induction of S296 phosphorylation in tumor of mouse xenografted with human HT-29 cells at 100 mg/kg, iv dosed once a week for 22 days by Western blot analysis; format: functional, organism-based; conditions: time 22.0 day
# [6] = target: T1, Serine/threonine-protein kinase Chk1 (Homo sapiens); test: Inhibition of CHK1 in human HT-29 cells assessed as […] residue at 40 nM incubated for 24 hrs by Western blot analysis; format: cell-based
# hERG (KCNH2) = hERG (KCNH2) (Homo sapiens, UniProt Q12809); test: Inhibition of human ERG expressed in HEK293 cells at 10 uM by patch-clamp technique relative to control; format: cell-based; conditions: HEK293 cells that express hERG
# [7] = Tmax in ICR mouse at 20 mg/kg, po measured after 0.083 to 48 hrs by LC-MS/MS analysis; format: ADME, organism-based; conditions: in vivo, time 0.083-48 hrs
# MV4-11 [8] = test: Antiproliferation activity against human MV4-11 cells assessed as reduction in cell viability incubated for 72 hrs by MTS assay; format: functional, cell-based; conditions: MV4-11, 72 h
# MV4-11 [9] = test: Antitumor activity against human MV4-11 cells xenografted in mouse assessed as inhibition of tumor growth by measuring T/C ratio at 30 mg/kg, po dosed 5 days/week for 3 weeks measured twice every week; format: functional
# [10] = Half life in ICR mouse at 20 mg/kg, po measured after 0.083 to 48 hrs by LC-MS/MS analysis; format: ADME, organism-based; conditions: in vivo, time 0.083-48 hrs
# Z-138 = test: Antiproliferation activity against human Z138 cells assessed as reduction in cell viability incubated for 72 hrs by MTS assay; format: functional, cell-based; conditions: Z-138, 72 h
# [11] = MRT (0 to infinity) in ICR mouse at 20 mg/kg, po measured after 0.083 to 48 hrs by LC-MS/MS analysis; format: ADME, organism-based; conditions: in vivo, time 0.083-48 hrs
# [12] = target: T2, Serine/threonine-protein kinase Chk1 (Homo sapiens, UniProt O14757); test: Inhibition of CHK1 (unknown origin) incubated for 1 hr in presence of ATP by HTRF assay
# T2 sequence (O14757 whole entry): T1 sequence (whole entry)
# [13] = AUCt in ICR mouse at 20 mg/kg, po measured after 0.083 to 48 hrs by LC-MS/MS analysis; format: ADME, organism-based; design: route oral, dose 20 mg/kg, time 0.083-48 hrs; conditions: in vivo
# [14] = Cmax in ICR mouse at 20 mg/kg, po measured after 0.083 to 48 hrs by LC-MS/MS analysis; format: ADME, organism-based; design: route oral, time upper 48 hrs, time lower 0.083 hrs, dose 20 mg/kg; conditions: in vivo
# [15] = AUC (0 to infinity) in ICR mouse at 20 mg/kg, po measured after 0.083 to 48 hrs by LC-MS/MS analysis; format: ADME, organism-based; design: route oral, time upper 48 hrs, time lower 0.083 hrs, dose 20 mg/kg; conditions: in vivo
# [16] = AUC(0 to infinity) in ICR mouse at 10 mg/kg, po measured after 0.083 to 48 hrs by LC-MS/MS analysis; format: ADME, organism-based; design: route oral, time lower 0.083 hrs, dose 10 mg/kg, time upper 48 hrs; conditions: in vivo
# [17] = Tmax in ICR mouse at 10 mg/kg, po measured after 0.083 to 48 hrs by LC-MS/MS analysis; format: ADME, organism-based; conditions: in vivo, time 0.083-48 hrs
# [18] = AUCt in ICR mouse at 10 mg/kg, po measured after 0.083 to 48 hrs by LC-MS/MS analysis; format: ADME, organism-based; design: route oral, dose 10 mg/kg, time 0.083-48 hrs; conditions: in vivo
# [19] = MRT(0 to infinity) in ICR mouse at 10 mg/kg, po measured after 0.083 to 48 hrs by LC-MS/MS analysis; format: ADME, organism-based; conditions: in vivo, time 0.083-48 hrs
# [20] = Cmax in ICR mouse at 10 mg/kg, po measured after 0.083 to 48 hrs by LC-MS/MS analysis; format: ADME, organism-based; design: route oral, time upper 48 hrs, dose 10 mg/kg, time lower 0.083 hrs; conditions: in vivo
# [21] = Half life in ICR mouse at 10 mg/kg, po measured after 0.083 to 48 hrs by LC-MS/MS analysis; format: ADME, organism-based; conditions: in vivo, time 0.083-48 hrs
# Sequence of hERG (KCNH2) (Q12809 whole entry): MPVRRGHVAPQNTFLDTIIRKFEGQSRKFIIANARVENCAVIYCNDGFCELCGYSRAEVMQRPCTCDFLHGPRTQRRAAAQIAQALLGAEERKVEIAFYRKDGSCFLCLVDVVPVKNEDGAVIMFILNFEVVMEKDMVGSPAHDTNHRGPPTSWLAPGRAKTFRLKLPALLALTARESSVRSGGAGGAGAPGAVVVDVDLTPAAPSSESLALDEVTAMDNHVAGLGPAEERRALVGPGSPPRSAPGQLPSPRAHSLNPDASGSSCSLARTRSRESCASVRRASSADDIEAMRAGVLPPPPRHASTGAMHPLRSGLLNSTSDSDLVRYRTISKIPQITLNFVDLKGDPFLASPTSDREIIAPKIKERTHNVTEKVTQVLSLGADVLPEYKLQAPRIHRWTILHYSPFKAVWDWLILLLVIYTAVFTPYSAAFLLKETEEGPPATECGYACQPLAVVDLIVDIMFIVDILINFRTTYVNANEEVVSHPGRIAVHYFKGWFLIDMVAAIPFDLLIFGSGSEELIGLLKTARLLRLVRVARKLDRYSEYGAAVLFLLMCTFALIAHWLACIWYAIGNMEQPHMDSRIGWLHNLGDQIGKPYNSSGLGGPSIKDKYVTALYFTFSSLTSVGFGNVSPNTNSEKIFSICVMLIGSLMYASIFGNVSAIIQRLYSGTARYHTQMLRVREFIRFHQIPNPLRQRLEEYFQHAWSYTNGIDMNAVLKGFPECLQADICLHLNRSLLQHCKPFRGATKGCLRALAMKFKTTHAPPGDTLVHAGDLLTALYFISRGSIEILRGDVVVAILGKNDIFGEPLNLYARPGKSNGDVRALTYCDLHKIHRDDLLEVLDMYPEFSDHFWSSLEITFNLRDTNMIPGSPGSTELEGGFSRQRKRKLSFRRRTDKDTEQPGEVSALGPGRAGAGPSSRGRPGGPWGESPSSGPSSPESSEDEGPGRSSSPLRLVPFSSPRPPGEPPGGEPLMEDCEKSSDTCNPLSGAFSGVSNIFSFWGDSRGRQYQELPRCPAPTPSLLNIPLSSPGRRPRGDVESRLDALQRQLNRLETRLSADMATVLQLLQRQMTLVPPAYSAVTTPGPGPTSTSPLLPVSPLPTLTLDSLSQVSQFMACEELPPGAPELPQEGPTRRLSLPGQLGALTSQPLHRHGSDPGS
compound,measurement,setting,value
Nc1ccn([C@@H]2O[C@H](CO)[C@@H](O)C2(F)F)c(=O)n1 [GEMCITABINE],Activity,Mus musculus [1],Active
same,Activity,HT-29 [2],Active
same,T/C,HT-29 [3],57.7%
same,Activity,[4],Active
same,Activity,Mus musculus [5],Active
same,Activity,[6],Active
CNc1nc(Nc2cnc(C#N)c(N[C@@H]3CCNC3)c2)ncc1C(F)(F)F,inhibition at 10 µM,hERG (KCNH2),17.9%
same,Tmax,[7],0.33 h
same,IC50,MV4-11 [8],60 nM
same,T/C,MV4-11 [9],65.78%
same,half-life,[10],1.4 h
same,IC50,Z-138,170 nM
same,MRT inf,[11],1.17 h
same,IC50,[12],3.3 nM
same,AUC(0-t),[13],1120 ng·h/mL
same,Cmax,[14],1330 ng/mL
same,AUC(0-inf),[15],1150 ng·h/mL
N#Cc1ccc(Nc2ncc(C(F)(F)F)c(N[C@H]3CC[C@H](N)CC3)n2)cn1,inhibition at 10 µM,hERG (KCNH2),47.9%
same,IC50,MV4-11 [8],50 nM
same,AUC(0-inf),[16],1440 ng·h/mL
same,IC50,Z-138,680 nM
same,Tmax,[17],1.42 h
same,AUC(0-t),[18],1430 ng·h/mL
same,IC50,[12],32.9 nM
same,MRT inf,[19],3.37 h
same,Cmax,[20],371 ng/mL
same,half-life,[21],2.88 h
